Here are results for 16 compounds from ChEMBL document CHEMBL1201862, “PubChem BioAssay data set” (2004).

Common to all, as to assay: NCI anticancer screen, dose series, 48 h
Assay [1] has as its system A549.
Assay [2] concerns CAKI-1.
For assay [3], the system named is HCC 2998.
Assay [4] deals with HCT-15.
Assay [5] has as its system HOP-92.
The test system of assay [6] is MOLT-4.
The subject of assay [7] is NCI-H522.
The test system of assay [8] is OVCAR-5.
The subject of assay [9] is SK-MEL-5.
The subject of assay [10] is SN12C.
Assay [11] concerns UACC-257.
In assay [12] the test system is UACC-62.
Assay [13] relates to UO-31.
Assay [14] has as its system SR.

Values joined by “and” are separate entries in the source; they are usually repeats but may differ in a detail not shown here. Equal entries are not always repeated.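 Compound exposure: 48 hours, 5 concentrations, 96-well plates. GI50 marks 50% less growth.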 Active and inactive are the calls of the source. No stated cut-off is given here; in the data, active = GI50 up to about 1.1 µM and inactive = higher.

`CCOc1ccc(NC(=O)/C(=C/c2ccccc2)C(C)=O)cc1`: the GI50 is 22.2 µM (inactive) in assay [1]; 11.7 µM (inactive) in assay [2]; 13.3 µM (inactive) in [3]; 8.99 µM in [4]; 14.1 µM (inactive) in assay [5]; 3.73 µM (inactive) in assay [6]. Moreover, the GI50 in assay [7] is 2.12 µM (inactive); in assay [8], 17.6 µM (inactive); in assay [9], 12.2 µM (inactive); in [10] it was 13.2 µM (inactive); in assay [11] it was 12.2 µM (inactive); in assay [12], 5.04 µM (inactive). Also, the GI50 in [13] is 9.66 µM (inactive).
`C[N+](C)(C)CC(=O)N/N=C(/C(=O)Nc1ccc(Br)cc1)C1C(=O)NC(=O)NC1=O`: the GI50 was > 100 µM (inactive) in assay [1]; > 100 µM (inactive) in assay [2]; > 100 µM (inactive) in [3]; over 100 µM in [4]; > 100 µM (inactive) in [6]; > 100 µM (inactive) in assay [7]. Moreover, the GI50 in assay [8], in [9], in assay [10], in assay [14], in [11] and in assay [12] was > 100 µM (inactive) in each case. Moreover, the GI50 in assay [13] was > 100 µM (inactive).
Turning to `COc1ccc2nc(NC(=O)C(=O)CC(=O)c3ccc([N+](=O)[O-])cc3)sc2c1`, the GI50 in [1], in assay [2], in assay [3], in [5], in assay [6] and in assay [7] was > 100 µM (inactive) each time. Moreover, the GI50 was > 100 µM (inactive) in assay [8]; > 100 µM (inactive) in [9]; > 100 µM (inactive) in assay [10]; > 100 µM (inactive) in assay [11]; > 100 µM (inactive) in [12]; 50.7 µM (inactive) in assay [13].
On to `Cc1cc(C)c([O-])c(-[n+]2c(-c3ccccc3)cc(-c3ccccc3)cc2-c2ccccc2)c1`, for which the GI50 in assay [1] was 12.6 µM (inactive); in assay [2], 9.27 µM (inactive); in assay [3], 3.51 µM (inactive); in assay [4], 11.9 µM; in assay [5], 1.73 µM (inactive); in assay [6], 2.67 µM (inactive). The GI50 in assay [8] is 4.49 µM (inactive); in [9] it was 1.94 µM (inactive); in [10], 5.09 µM (inactive); in [14] it was 2.6 µM (inactive); in [11] it was 2.94 µM (inactive); in assay [12] it was 3.34 µM (inactive). In assay [13], the GI50 was 18.9 µM (inactive).
As for `NNC(=O)CC(=O)Nc1ccccc1F`, the GI50 in assay [1] was > 100 µM (inactive); in [2], > 100 µM (inactive); in [3], > 100 µM (inactive); in assay [4] it was over 100 µM; in assay [5], > 100 µM (inactive); in [6] it was > 100 µM (inactive). Moreover, the GI50 in assay [7], in [8], in [9], in assay [10], in assay [11] and in assay [12] was > 100 µM (inactive) throughout. In assay [13], the GI50 was > 100 µM (inactive).
Turning to `C(=C\c1c2oc(-c3ccccc3)cc(-c3ccccc3)c-2c2ccccc12)/C=C1\c2ccccc2-c2c(-c3ccccc3)cc(-c3ccccc3)[o+]c21.[O-][Cl+3]([O-])([O-])[O-]`, the GI50 in assay [1] is > 100 µM (inactive); in assay [3] it was > 100 µM (inactive); in assay [4], over 100 µM; in [5] it was > 100 µM (inactive); in [6], > 100 µM (inactive); in [7], > 100 µM (inactive). In addition, the GI50 in assay [8], in [9], in assay [10], in assay [14], in [11] and in assay [12] was > 100 µM (inactive) throughout. Moreover, in [13], the GI50 was > 100 µM (inactive).
In the case of `COc1cccc2c1C1=CC(=O)CCC1C(C)(C)O2` (stereo not drawn), the GI50 in [1] was > 100 µM (inactive); in assay [2], > 100 µM (inactive); in [4], over 100 µM; in assay [5] it was > 100 µM (inactive); in [6], > 100 µM (inactive); in assay [7], > 100 µM (inactive). Also, the GI50 in assay [8], in [9], in assay [10], in assay [11], in assay [12] and in [13] was > 100 µM (inactive) in each case.
With `CC(SC(=S)N1CCOCC1)c1cc2oc(=O)n(C)c2cc1Cl` (stereo not drawn), the GI50 in assay [1] is 42.2 µM (inactive); in [2], > 100 µM (inactive); in [3], > 100 µM (inactive); in assay [4] it was over 100 µM; in [5] it was > 10 µM (inactive); in assay [6] it was 56.1 µM (inactive). Further, the GI50 was > 100 µM (inactive) in assay [8]; 62.7 µM (inactive) in assay [9]; > 100 µM (inactive) in [10]; 30.4 µM (inactive) in assay [14]; 74.5 µM (inactive) in assay [11]; > 100 µM (inactive) in assay [12]. Further, in [13], the GI50 is > 100 µM (inactive).
For `CCOC(=O)c1ccc(/N=C/c2ccc(N(CCC#N)S(=O)(=O)c3ccccc3)cc2C)cc1`, the GI50 in assay [1] was 47.1 µM (inactive); in assay [2], 39.4 µM (inactive); in assay [3] it was 28.7 µM (inactive); in [4], 6.82 µM; in assay [6], 28.6 µM (inactive); in assay [7], 72.1 µM (inactive). Moreover, the GI50 in assay [8] is 31.8 µM (inactive); in assay [9], 80.7 µM (inactive); in assay [10], 75.7 µM (inactive); in assay [11] it was 50 µM (inactive); in assay [12], 19.4 µM (inactive); in assay [13], 28.3 µM (inactive).
Take `CC(C)N1CC2CC(CN(C(=O)c3ccc(Cl)cc3)C2)C1`: the GI50 was > 100 µM (inactive) in assay [1]; > 100 µM (inactive) in assay [2]; over 100 µM in [4]; > 100 µM (inactive) in assay [5]; > 100 µM (inactive) in [6]; > 100 µM (inactive) in assay [7]. In addition, the GI50 in [8], in assay [9], in assay [10], in assay [11], in assay [12] and in assay [13] was > 100 µM (inactive) in each case.
In the case of `CN(CCN1C(=O)c2cc([N+](=O)[O-])cc3cc([N+](=O)[O-])cc(c23)C1=O)CCN1C(=O)c2cc([N+](=O)[O-])cc3cc([N+](=O)[O-])cc(c23)C1=O`, the GI50 in assay [1] is 0.887 µM (active); in [2], 0.322 µM (active); in [3], 0.491 µM (active); in [4] it was 0.482 µM; in assay [5], 0.252 µM (active); in assay [6] it was 0.0485 µM (active). The GI50 in [7] was 0.421 µM (active); in assay [8], 1.69 µM (inactive); in assay [9], 1.21 µM (inactive); in [10] it was 0.332 µM (active); in [11] it was 1.21 µM (inactive); in assay [12] it was 0.811 µM (active). In addition, the GI50 in assay [13] is 4.8 µM (inactive).
As for `Cc1cc(C)c(C(=O)C(C)C(c2ccccc2)c2ccc(Cl)cc2)c(C)c1` (stereo not drawn), the GI50 in assay [1] was > 100 µM (inactive); in assay [2], > 100 µM (inactive); in assay [4], > 100 µM and 51.5 µM; in assay [6] it was 65.9 µM (inactive) and 50.7 µM (inactive); in assay [9], > 100 µM (inactive); in assay [10] it was > 100 µM (inactive). The GI50 in assay [14] is 76.2 µM (inactive) and 64.6 µM (inactive); in [11], 44.2 µM (inactive) and 38.5 µM (inactive); in [12], > 100 µM (inactive); in assay [13], 50.8 µM (inactive).
Consider `CN(C)C=C1C(=O)N(C)C(=O)N(C)C1=O`, for which the GI50 was > 100 µM (inactive) in assay [1]; > 100 µM (inactive) in [2]; > 100 µM (inactive) in [3]; over 100 µM in assay [4]; > 100 µM (inactive) in assay [5]; > 100 µM (inactive) in assay [6]. Moreover, the GI50 in assay [8], in [9], in assay [10], in assay [14], in [11] and in [12] was > 100 µM (inactive) in each case. For the same compound, the GI50 in assay [13] is > 100 µM (inactive).
Consider `C=C1C(=O)OC2C1C(OC(=O)/C(=C/C)COC(C)=O)CC1(CO1)C1C(OC(=O)/C(=C/C)CO)C=C(C)C21` (stereo not drawn), for which the GI50 in assay [1] is 6.9 µM (inactive); in assay [2] it was 0.502 µM (active); in [3] it was 1.92 µM (inactive); in assay [4], 1.59 µM; in assay [6] it was 0.378 µM (active); in [8], 12.2 µM (inactive). In addition, the GI50 was 2.29 µM (inactive) in [9]; 1.82 µM (inactive) in assay [10]; 2.04 µM (inactive) in assay [11]; 1.59 µM (inactive) in assay [12]; 3.14 µM (inactive) in assay [13].
For `Cc1c2cc[n+](C)cc2c(C)c2c1[nH]c1ccc(O)c(OCC(F)(F)F)c12`, the GI50 was 1.87 µM (inactive) in assay [1]; 12.8 µM (inactive) in assay [2]; 4.55 µM (inactive) in [3]; 4.91 µM (inactive) in assay [5]; 2.42 µM (inactive) in assay [6]; 1.01 µM (active) in assay [7]. Moreover, the GI50 in assay [8] was 7.11 µM (inactive); in assay [9], 1.51 µM (inactive); in [10], 0.34 µM (active); in assay [11], 6.31 µM (inactive); in assay [12], 5.66 µM (inactive); in assay [13] it was 7.06 µM (inactive).
Consider `COc1ccc(C/C(=N/O)C(=O)NCCc2cc(Br)c(OCCCN(C)C)c(Br)c2)cc1Br` [APLYSAMINE 2], for which the GI50 in assay [1] was 20 µM (inactive); in assay [2] it was 25.6 µM (inactive); in assay [3] it was 14.1 µM (inactive); in assay [7], 16.4 µM (inactive); in [8] it was 22.3 µM (inactive); in [10], 18.5 µM (inactive). Further, the GI50 is 16.1 µM (inactive) in [11] and 23.1 µM (inactive) in assay [13].
